The text below walks through data of patent US6911450B1, “Pyrimidine acyclonucleoside derivatives, preparation method and use thereof” (Universite de Geneve, priority 2001, dated 2005).

A word on the IC50: it is the concentration at which inhibition is half-maximal. By CC50 is commonly meant the concentration giving 50% cytotoxicity. Broadly, the IC90 is the point of the concentration-response curve where the effect stands at 90%. A higher IC90 goes with a need for much substance. Usually melting point stands for the temperature of the solid-liquid transition.

Where two headings read alike, the source gives them in different places.

For one data set, the system named is HIV-1. The settings on record: cited from earlier work; for activity against HIV-1: prior art.
A further data set deals with HIV-1 lai strain. The experiment in a line: Anti-HIV test on PBMC, viral replication measured by Reverse Transcriptase (RT) activity in culture supernatants. Particulars: for IC50 / IC90: Human immunodeficiency virus 1, 168 h, against HIV-Lai on PBMC, 7 days, RT activity assay; for activity relative to that of its congeners or of its rivals: from Table 1. The data set is classed as cell-based. How it is done:
The object of the screening is to evaluate the antiretroviral activity of the compounds of the present invention and of the Comparative Compounds on the HIV-1 lai strain cultivated on peripheral blood mononucleated cells (PBMC). For this purpose, the test compounds were incubated for seven days (duration of the anti-HIV test) with the PBMC in exponential phase of growth. The ability of the compounds to inhibit the viral replication was then measured in the culture supernatants either by an assay of the “Reverse Transcriptase” (RT) activity with the kit RetroSys TR (INNOVAGEN) or by an assay of the protein P24 with the kit Innotest HIV Antigen mAb Screening (IMMUNOGENETICS). The concentrations of the test compound causing 50 and 90% inhibition of the viral replication were determined. It concerns inhibition concentrations IC50 and IC90, respectively. The PBMC were isolated as described in Ulmer and col., Immunobiology, 166(3), 238-250 (1984) from a healthy donor by a Ficoll gradient (Nicomed Pharma AS). The PBMC were activated with phytohemagglutinine for three days and then cultivated in a 96-well plate, in a base medium (RPMI) supplemented with recombinant human Interleukin-2. Throughout the culture, the cells were maintained at 37° C., in an atmosphere saturated in humidity, and under 5% CO2. The PBMC were pre-treated for one hour in the presence of the test compounds at various concentrations, and then infected with 100 TCID50 of HIV-1-Lai [S. Wain-Hobson and col., Science 17, 252 (5008): 961-965 (1991)]. Three days after the infection with HIV-1, the half of the culture medium was changed and, at the day 7, the supernatants were taken and frozen at −20° C. Then, the viral replication was measured: a) by assaying the “Reverse Transcriptase” (RT) activity in the culture supernatants by means of the kit RetroSys (Innovagen). The RT contained in the supernatant synthesizes, in the presence of bromodeoxyuridine triphosphate (BrdUTP), a complementary strand DNA to a matrix immobilized on the bottom of the wells of a 96-well plate. The incorporation of BrdU is quantified by the fixation of an antibody anti-BrdU conjugated to the alkaline phosphatase. The activity of the attached alkaline phosphatase, measured by colorimetry, is proportional to the RT activity in the culture supernatant. The results described below are the results of at least two experiments which are distinct and carried out in triplicate.

The nature of data set [1]: Cytotoxicity assay revealed by MTT after seven days of culture. The settings on record: human, PBMC, 50% diminution of growth and viability. The data set is classed as cell-based, human. On the procedure:
(§1) Concurrently to the screening, and in the same conditions, cytotoxicity assays of the test compounds were carried out.
(§2) This assay has allowed to determine the concentration of the product causing a diminution of 50% of the growth and the viability of PBMC (CC50).
(§3) The PBMC were isolated as described in Ulmer and col., Immunobiology, 166(3), 238-250 (1984) from a healthy donor by a Ficoll gradient (Nicomed Pharma AS).
(§4) The PBMC were activated with phytohemagglutinine for three days and then cultivated in a 96-well plate, in a base medium (RPMI) supplemented with recombinant human Interleukin-2.
(§5) Throughout the culture, the cells were maintained at 37° C., in an atmosphere saturated in humidity, and under 5% CO2.

For data set [2], the system named is Bone marrow cells of Balb/c mice. As to the kind of experiment: Toxicity test on bone marrow cells (proliferation by Trypan blue count, differentiation by flow cytometry). The data set is classed as cell-based. Particulars: for cell proliferation / proportions of lymphocytes B, myelocytes, neutrophiles and macrophages induced by the cytokines: mouse bone marrow cells, 5 days; for cell proliferation: 1×10^−12 to 1×10^−5 M, versus absence of compound; for proportions of lymphocytes B, myelocytes, neutrophiles and macrophages induced by the cytokines: whatever the concentration, presence versus absence of compound. How it is done: Toxicity tests of Compounds No. 3 and 5 of the present invention were further carried out on bone marrow cells according to the following working method. Bone marrow cells of Balb/c mice were cultivated at the rate of 5×10^5 cells/ml in cultures of 1 ml in RPMI 1640 medium supplemented with 1 mM glutamine, 10% fetal calf serum, penicillin and streptomycin (GIBCO, USA). The cells were stimulated by addition of 1 ng/ml of Stem cell factor (c-kit ligand), IL3 and GM-CSF (Pharmingen, USA) in the presence of increasing concentrations of the Compounds 3 and 5 of the present invention ranging from 1×10^−12 to 1×10^−5 M. After 5 days of culture at 37° C., 5% CO2, the cells were recovered. The proliferation was evaluated by numeration of living cells in the presence of Trypan blue. The differentiation of the cells was evaluated by Flow Cytometry (Facs-Calibur, BECTON DICKINSON, USA) by double labeling of the cells with antibodies anti-CD38 conjugated with phycoerythrine (PE), anti-Gr1 conjugated with fluoresceine 5 (Fl), anti-Gr1-PE and anti-CD11b-Fl (Pharmingen, USA).

The subject of a further data set is PBMC. The experiment in a line: Cytotoxicity assay revealed by MTT after seven days of culture. The data set is classed as cell-based, human. The settings on record: 7 days, 50% diminution of growth and viability. On the procedure: as §1, §2, §3, §4, §5
The nature of data set [3]: Combination test with AZT, ddI and ddC. The data set is classed as cell-based.

As for `Cc1cn(C(C)OCCN(O)C(N)=O)c(=O)[nH]c1=O` (stereo not shown) [Formula B], the “activity against HIV-1” value with HIV-1 was “totally inactive”.

In the data set with HIV-1 lai strain, `CCOCn1c(Cc2ccccc2)c(C(C)C)c(=O)[nH]c1=O` [Comparative 4, 1-ethyloxymethyl-6-benzyl-5-isopropyluracil, reference compound] showed an IC50 of 2 nM. The CC50 at 7 days in data set [1] was greater than 30000 nM.

On to `Cc1cc(C)cc(Cc2c(C(C)C)c(=O)[nH]c(=O)n2COCCCN(OC(=O)C(C)(C)C)C(N)=O)c1` [Compound 5, 1-(3-N^1-pivaloyloxyureidopropyloxymethyl)-6-(3,5-dimethylbenzyl)-5-isopropyluracil], for which the “activity relative to that of its congeners or of its rivals” value with HIV-1 lai strain was 1,000,000 times. Besides, in data set [2], the “toxic effects on bone marrow cells of mice” value is “no significant toxic effects”; the cell proliferation entry is “identical to the one observed in the absence”; the “proportions of lymphocytes B, myelocytes, neutrophiles and macrophages induced by the cytokines” value is “identical in the presence or in the absence”. In the data set on PBMC, this molecule gave a CC50 of 65000 nM.

Molecule `CCc1c(Cc2cc(C)cc(C)c2)n(COCCCN(O)C(N)=O)c(=O)[nH]c1=O` [Compound 2, 1-(3-N1-hydroxyureidopropyloxymethyl)-6-(3,5-dimethylbenzyl)-5-ethyl-uracil] yielded a melting point of 165 to 167 °C. Also, in the data set with HIV-1 lai strain, the 50% inhibitory concentration (IC50) is 0.24 nM and the IC90 is 1.7 nM. This molecule also had a half-maximal cytotoxic concentration (CC50) at 7 days in data set [1] greater than 300000 nM. Also, in data set [3], the “synergy with AZT, ddI and ddC” value is recorded as “exhibited a synergy”.

`CCc1c(Cc2ccccc2)n(COCCN(O)C(N)=O)c(=O)[nH]c1=O` [Comparative 3, 1-(2-N^1-hydroxyureidoethyloxymethyl)-6-benzyl-5-ethyluracile] returned a melting point of 276 to 277 °C. The molecule further gave an IC50 in the data set on HIV-1 lai strain of 70 nM. In addition, in the data set with HIV-1 (against HIV-1, prior art), the IC50 was 70 nM. The “activity against HIV-1” value in the data set with HIV-1 was “only very moderately active”. Further, the CC50 at 7 days in data set [1] was greater than 250000 nM.

`CCc1c(Cc2cc(C)cc(C)c2)n(COCCN(O)C(N)=O)c(=O)[nH]c1=O` [Comparative 1, 1-(2-N^1-hydroxyureidoethyloxymethyl)-6-(3,5-dimethylbenzyl)-5-ethyluracil] gave a melting point of 147 to 148 °C. For the same molecule, in the data set on HIV-1 lai strain, the midpoint of inhibition, the IC50, lay at 0.92 nM and the concentration for an effect of 90% (IC90) stood at 15 nM. The cytotoxic concentration (CC50) at 7 days in data set [1] was greater than 500000 nM.

Molecule `Cc1cc(C)cc(Cc2c(C(C)C)c(=O)[nH]c(=O)n2COCCCN(O)C(N)=O)c1` [Compound 3, 1-(3-N^1-hydroxyureidopropyloxymethyl)-6-(3,5-dimethylbenzyl)-5-isopropyluracil] came in with a melting point of 88 to 90 °C. Further, in the data set with HIV-1 lai strain, the concentration for an effect of 90% (IC90) stood at 0.0039 nM and the “activity relative to that of its congeners or of its rivals” value is recorded as 100,000 times. Further, in data set [2] (even at concentrations 1×10^6 time higher than those inhibiting HIV replication in human lymphocytes in vitro), the “toxic effects on bone marrow cells of mice” value is listed as “no significant toxic effects”. In addition, in data set [2], the cell proliferation result was “identical to the one observed in the absence”; the “proportions of lymphocytes B, myelocytes, neutrophiles and macrophages induced by the cytokines” value is on record as “identical in the presence or in the absence”. In data set [1], this molecule displayed a cytotoxic concentration (CC50) at 7 days of 220000 nM.

`CC(=O)ON(CCCOCn1c(Cc2cc(C)cc(C)c2)c(C(C)C)c(=O)[nH]c1=O)C(N)=O` [Compound 4, 1-(3-N^1-acetoxyureidopropyloxymethyl)-6-(3,5-dimethylbenzyl)-5-isopropyluracile] showed a melting point of 77 to 79 °C. In the data set with HIV-1 lai strain, inhibition was half-maximal at 0.03 nM (IC50) and the IC90 stood at 0.6 nM. This molecule returned a CC50 at 7 days in data set [1] of 30000 nM.

As for `CCc1c(Cc2cc(C)cc(C)c2)n(COCCCNC(=O)NO)c(=O)[nH]c1=O` [Compound 1, 1-(3-N^3-hydroxyureidopropyloxymethyl)-6-(3,5-dimethylbenzyl)-5-ethyl-uracil], in the data set on HIV-1 lai strain, half-maximal inhibition (IC50) was put at 2.3 nM and it took 9 nM to reach the 90% level (IC90). In data set [1], this molecule displayed a CC50 at 7 days of 260000 nM.

As to `CCc1c(Cc2cc(C)cc(C)c2)n(COCCCCN(O)C(N)=O)c(=O)[nH]c1=O` [Comparative 2, 1-(4-N^1-hydroxyureidobutyloxymethyl)-6-(3,5-dimethylbenzyl)-5-ethyluracil], the melting point lay in the range of 148 to 150 °C. In the data set on HIV-1 lai strain, this molecule registered an IC50 of 2.3 nM and a 90% effect concentration (IC90) of 30 nM. For the same molecule, the CC50 at 7 days in data set [1] is greater than 50000 nM.
